Experiments:
[1] = test system: human melanoma cells A2058; assay: MATRIGEL invasion and migration by melanoma cells A2058; assay type: cell-based
Procedure: The inhibitory effects of these oligopeptides on the MATRIGEL™ invasion and migration through the MATRIGEL™ membrane by various cancer cells were evaluated using “Improved MATRIGEL™ Invasion Chamber” (Becton Dickinson, USA).
(§1) The studies were conducted using “Improved MATRIGEL™ Invasion Chambers” (Becton Dickinson, USA).
(§2) In studies with human melanoma cells, human fibroblasts-NHDF (Clonetics) were seeded on MATRIGEL™ inserts and allowed to reach confluence. This was done to closely simulate in vivo conditions surrounding cancer cells in the body. Human melanoma cells A2058 were then seeded on the insert. Conditioned media from the fibroblast culture supplemented with various levels of chosen oligopeptide were added to the chamber. The system was incubated for about 24 hours. At the end of the period the cells on the upper surface of the insert were wiped off. The cells that had invaded the MATRIGEL™ membrane and had migrated to the lower surface of the insert were stained with “quick stain” and were counted under the microscope. […] The inhibitory activity of the control was considered as “0”. The media from invasion assays were saved for zymogram studies.

[2] = test system: MMP-2 secreted by the cancer cells; assay: Zymogram studies of media from invasion assays; assay type: cell-based, human; settings: zymogram gels
Procedure: as §2
The media (25-30 μl) from various wells in invasion studies were applied to NOVEX® zymogram gels (Invitrogen). The gels were developed and stained as recommended by the manufacturer. The matrix metalloproteinases (MMPs) were identified on the basis of their known molecular weights.

[3] = test system: human breast cancer cells MCF7; assay: MATRIGEL invasion and migration by breast cancer cells MCF7; assay type: cell-based; settings: for inhibition of MATRIGEL invasion: MCF7
Procedure: as §1, §2
(§3) In studies with human breast cancer cells MCF7 the procedure was essentially similar to that used for melanoma cells, except that MRC5 (ATCC) fibroblasts were used in place of NHDF.

[4] = test system: human breast cancer cells MDA-MB 231; assay: MATRIGEL invasion by breast cancer cells MDA-MB 231; assay type: cell-based; settings: 150 μM
Procedure: as §1, §2, §3
In studies with human breast cancer cells MDA-MB 231 the fibroblast-MRC5 cells were plated in the wells. The rest of the procedure remained the same as in studies with MCF7 cells.

[5] = comparison of oligopeptides (FIG. 2), concentration not given, about 24 hours

GDVAPKTDKE (listed as Homo sapiens)
inhibition of MATRIGEL invasion ([1]; 100 μM concentration): did not show any activity

LPPDVQRVD (listed as Homo sapiens)
inhibition of MATRIGEL invasion [1, 5]: about 20%

PRKPKWDK (listed as Homo sapiens) [synthetic oligopeptide corresponding to amino acids 85 to 92 of MMP-2]
inhibitory effect on the amount of MMP-2 secreted [2]: did not show any inhibitory effect
inhibition of MATRIGEL invasion ([3]; 150 μM (FIG. 4)): about 70%
inhibition of MATRIGEL invasion ([3]; 200 μM (FIG. 4)): about 90%
inhibition of the invasion of cancer cells ([3]; summary statement, cell line and concentration not stated): about 90%
inhibition of MATRIGEL invasion [4]: about 94%
inhibition of MATRIGEL invasion ([1]; 50 μM (FIG. 3)): about 37%
inhibition of MATRIGEL invasion ([1]; 100 μM concentration): 63%
inhibition of MATRIGEL invasion ([1]; 150 μM (FIG. 3)): 73%
inhibition of MATRIGEL invasion [1, 5]: 73%

TMRKPRCGNPDVAN (listed as Homo sapiens) [reference compound]
inhibition of MATRIGEL invasion [1, 5]: about 11%

Source: patent publication US8012935B2, “Synthetic peptides and methods for treating cancer invasion and metastasis” (priority 2002, dated 2011)
